Assay results taken from US7368287B2, “Use of L-α-lysophosphatidylcholine to obtain the differentiation of monocytes into mature dendritic cells in vitro” (Biomerieux, priority 2002, dated 2008).

Experiments:
[1] = tested on: monocytes isolated from human peripheral blood; experiment: Phenotype (CD83, HLA-DR, CD86 expression) by flow cytometry of monocytes differentiated in absence or presence of LPC; assay type: cell-based; details: 6th day of differentiation; 40 μM LPC added on day 5 for 24 hours
Description: Isolation, placing in culture and initiation of the differentiation of monocytes—The monocytes are isolated from human peripheral blood by means of first density gradient centrifugation (620 g; 20 minutes) in Ficoll-Hypaque, followed by second centrifugation (770 g; 20 minutes) in a 50% Percoll solution. The monocytes are then purified by immunomagnetic depletion (Dynal, Oslo, Norway), using a cocktail of anti-CD19 (hydridoma 4G7) (Becton Dickinson, Francklin Lakes, N.J., USA), anti-CD3 (OKT3, American Type Culture Collection, Rockeville, Md.) and anti-CD56 (NKH1, Beckman Coulter, Fullerton, Calif., USA) monoclonal antibodies. The monocytes thus obtained are then purified to at least 90%, as shown by the absence of CD1a markers and the presence of the CD14 marker. The differentiation of the monocytes into dendritic cells is initiated with 40 ng/ml of recombined human GM-CSF (Granulocyte-Macrophage Colony Stimulating Factor) and 250 U/ml of recombined human interleukin IL-4.
The monocytes are placed in culture in RPMI 1640 medium (Life Technologies, Rockeville, Md., USA) enriched with 2 mM of glutamine (Life Technologies), 10 mM of Hepes (Life Technologies), […] of gentamycin (Life Technologies) and 10% of lipoprotein-depleted fetal calf serum (LPDS, Sigma, St Quentin-Fallavier, France).
Treatment of the monocytes with LPC—5 days after the beginning of the differentiation of the monocytes, 40 μM of LPC (L-α-lysophosphatidylcholine; Sigma, St Quentin Fallavier, France) are added to the culture medium for 24 hours. Control cells are also obtained in the absence of LPC in the culture medium.
The cells used in this analysis are those obtained on the 6th day of differentiation according to the protocol described in example 1.
The phenotype of the “control” and “LPC” cells is analyzed by flow cytometry on a FACSCalibur (Becton Dickinson, Francklin Lakes, N.J., USA) using FITC (fluorosceine isothiocyanate)-conjugated anti-CD14, anti-HLA-DR and anti-CD80 and PE (phycoerythrin)-conjugated anti-CD1a, anti-CD83, anti-CD86 and anti-CD40 (Beckman Coulter). […]

[2] = tested on: Gi protein-coupled receptors; experiment: Induction of CD86 by LPC after preincubation with pertussis toxin; assay type: cell-based, human; details: LPC cells = 100%; PTX 100 ng/ml for 3 hours before LPC
Description: (§1) The phenotype of the “control” and “LPC” cells is analyzed by flow cytometry on a FACSCalibur (Becton Dickinson, Francklin Lakes, N.J., USA) using FITC (fluorosceine isothiocyanate)-conjugated anti-CD14, anti-HLA-DR and anti-CD80 and PE (phycoerythrin)-conjugated anti-CD1a, anti-CD83, anti-CD86 and anti-CD40 (Beckman Coulter). According to the state of the art, monocytes preferentially have a CD14+ CD1a− phenotype, immature dendritic cells preferentially have a CD14− CD1a+CD86− phenotype, and mature dendritic cells preferentially have a CD14− CD1a intermediate—CD86+ phenotype.
Initially, in order to determine whether the receptors involved in the action of LPC in the differentiation of monocytes into mature dendritic cells belonged to the family of G protein-coupled receptors, PTX (pertussis toxin; 100 ng/ml), known to block Gi proteins, was added to the culture medium for 3 hours. The culture medium was then changed and the LPC was added as described in example 1.

PAF receptor = experiment: CD86 expression in presence of PAF or of the PAF antagonist BN52021; assay type: cell-based, human
Description: as §1
Thus, a solution of PAF (Sigma, 5 μM) was added to the culture medium on the 5th day of monocyte differentiation. The expression of CD86 by the “control” cells and by the “LPC” cells, obtained in the presence or in the absence of PAF, was analyzed according to the protocol described in example 2, and the results are given in table 9.
Thus, a solution of the PAF antagonist BN52021 (Biomol, Plymouth Meeting, USA, 100 μM) was added to the culture medium on the 5th day of monocyte differentiation. The expression of CD86 by the “control” and “LPC” cells, obtained in the presence or in the absence of BN52021, was analyzed according to the protocol described in example 2, and the results are given in table 10.

BALB/c mice = experiment: HEL-specific IgG in serum by ELISA after immunization; assay type: in vivo, mouse; details: LPC 350 nmol co-injected with HEL, booster after 15 days; FIG. 1
Description: LPC stimulates the production of specific antibodies against a co-injected soluble antigen. LPC dissolved in PBS (350 nmol in 50 μl) is mixed with hen egg lysozyme (HEL, 1 mg/ml) and this mixture is injected into the plantar foot pad of BALB/c mice. The “HEL+LPC” batch of mice receives 50 μl of this mixture in the foot pads of the two hind feet. The “HEL” batch of mice receives 50 μl of HEL solution (1 mg/ml in PBS) in the two feet. After 15 days, a booster injection is given subcutaneously on the 2 flanks. The “HEL+LPC” batch receives, on each flank, 100 μl of a solution of LPC (5 mM) and of HEL (1 mg/ml) in PBS. The “HEL” batch receives, on each flank, 100 μl of a solution of HEL (1 mg/ml) in PBS. Two weeks later, blood is taken from the mice and the IgGs specific for the HEL antigen are assayed by ELISA with respect to a standard IgG solution range. The titration curves giving the absorbance (Abs) as a function of the logarithm of the serum dilution are represented in FIG. 1.

L-α-lysophosphatidylcholine [LPC]
Expression of CD83 [1]: 11.74
Expression of CD86 [1]: 759.69
Expression of HLA-DR [1]: 146.31
Induction of CD86 [2]: 100%
Expression of CD86 (PAF receptor; LPC cells = 100%, BN52021 100 μM added on 5th day): 100%
Expression of the CD86 marker (mean fluorescence intensity) (PAF receptor; PAF 5 μM and/or LPC added on 5th day): 287.11
Increase in the expression of CD86 (PAF receptor; versus control cells, PAF 5 μM and/or LPC): 470%
Production of IgGs specific for the HEL antigen (BALB/c mice): induces the synthesis of antibodies specific for the antigen
